ChEMBL document CHEMBL1157426, “Diazen-1-ium-1,2-diolated nitric oxide donor ester prodrugs of 1-(4-methanesulfonylphenyl)-5-aryl-1H-pyrazol-3-carboxylic acids: synthesis, nitric oxide release studies and anti-inflammatory activities” (Bioorg Med Chem, 2008)

What was measured:
Rattus norvegicus = experiment: Antiinflammatory activity in po dosed rat assessed as inhibition of carrageenan-induced paw edema after 3 hrs; assay type: functional; conditions: read-out: ID50 (the source's name)
[1] = Induction of nitric oxide release at pH 7.4 PBS after 1.5 hrs; assay type: physicochemical; conditions: buffer, pH 7.4, 1.5 h
Serum = experiment: Induction of nitric oxide release in rat serum at pH 7.4 after 1.5 hrs; assay type: cell-free; conditions: pH 7.4, 1.5 h
[2] = target: Prostaglandin G/H synthase 1 (Homo sapiens) (UniProt P23219); conditions: at 100 µM
Prostaglandin G/H synthase 1 (Homo sapiens), sequence (P23219 whole entry): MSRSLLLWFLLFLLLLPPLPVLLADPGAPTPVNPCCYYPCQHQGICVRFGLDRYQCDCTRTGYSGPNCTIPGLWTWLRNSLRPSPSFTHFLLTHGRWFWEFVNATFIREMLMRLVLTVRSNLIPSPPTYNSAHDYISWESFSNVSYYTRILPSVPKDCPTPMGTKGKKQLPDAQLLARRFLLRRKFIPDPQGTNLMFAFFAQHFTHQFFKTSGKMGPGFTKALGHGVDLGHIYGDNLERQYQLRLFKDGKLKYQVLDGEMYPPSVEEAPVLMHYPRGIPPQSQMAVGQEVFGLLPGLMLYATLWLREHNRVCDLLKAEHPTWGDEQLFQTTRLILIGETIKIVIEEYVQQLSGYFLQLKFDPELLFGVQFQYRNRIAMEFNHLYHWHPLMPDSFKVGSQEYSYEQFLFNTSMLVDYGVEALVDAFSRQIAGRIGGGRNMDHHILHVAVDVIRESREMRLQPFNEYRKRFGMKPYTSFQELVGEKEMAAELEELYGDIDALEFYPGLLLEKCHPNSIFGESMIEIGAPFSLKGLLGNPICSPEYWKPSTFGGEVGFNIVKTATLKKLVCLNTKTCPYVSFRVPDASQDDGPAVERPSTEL
Description: Inhibition of COX1 at 100 uM

[3] = target: T1, Prostaglandin G/H synthase 2 (Homo sapiens) (UniProt P35354); conditions: at 100 µM
T1 sequence (whole entry): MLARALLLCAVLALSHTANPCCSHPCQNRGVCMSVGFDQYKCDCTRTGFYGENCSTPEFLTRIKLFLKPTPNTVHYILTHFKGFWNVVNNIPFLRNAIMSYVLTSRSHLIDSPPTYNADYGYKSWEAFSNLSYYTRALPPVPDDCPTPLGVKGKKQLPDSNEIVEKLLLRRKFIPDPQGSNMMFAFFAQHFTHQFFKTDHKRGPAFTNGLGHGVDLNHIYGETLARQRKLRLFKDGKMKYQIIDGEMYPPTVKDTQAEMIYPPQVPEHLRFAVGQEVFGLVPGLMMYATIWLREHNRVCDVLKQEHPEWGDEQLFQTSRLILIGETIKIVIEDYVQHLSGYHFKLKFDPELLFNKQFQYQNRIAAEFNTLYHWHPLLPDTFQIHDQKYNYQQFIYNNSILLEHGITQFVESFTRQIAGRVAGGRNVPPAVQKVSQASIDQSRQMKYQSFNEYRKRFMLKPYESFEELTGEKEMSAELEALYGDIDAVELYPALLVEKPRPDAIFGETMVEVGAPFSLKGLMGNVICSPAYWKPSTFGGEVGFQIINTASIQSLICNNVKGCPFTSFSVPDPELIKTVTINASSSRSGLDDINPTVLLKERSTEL
Description: Inhibition of COX2 at 100 uM

**Q.** Which ED50 (Rattus norvegicus) does the source give for CS(=O)(=O)c1ccc(-n2nc(C(=O)O)cc2-c2ccccc2)cc1 here?
**A.** 104 mg/kg

**Q.** For CC(=O)OCO/N=[N+](\[O-])N(C)CCOC(=O)c1cc(-c2ccc(C)cc2)n(-c2ccc(S(C)(=O)=O)cc2)n1, which Activity [1] is on record?
**A.** 9.2%

**Q.** What about the Activity (Serum) of the same compound?
**A.** 70.9%

**Q.** Which results are given for CC(=O)OCO/N=[N+](\[O-])N(C)CCOC(=O)c1cc(-c2ccccc2)n(-c2ccc(S(C)(=O)=O)cc2)n1?
**A.** Activity [1]: 7.7%; Activity (Serum): 67.5%

**Q.** With CS(=O)(=O)c1ccc(-n2nc(C(=O)O)cc2-c2ccc(F)cc2)cc1 as the compound, how does the ED50 (Rattus norvegicus) read?
**A.** 104 mg/kg

**Q.** Which results are given for CCOC(=O)c1cc(-c2ccc(C)cc2)n(-c2ccc(S(N)(=O)=O)cc2)n1?
**A.** inhibition [2]: 66%; inhibition [3]: 43%

**Q.** With CN(CCO)/[N+]([O-])=N/[O-].[Na+] as the compound, how does the Activity [1] read?
**A.** 84.5%

**Q.** And the Activity (Serum)?
**A.** 85%

**Q.** For CC(=O)OCO/N=[N+](\[O-])N(C)CCOC(=O)c1cc(-c2ccc(F)cc2)n(-c2ccc(S(C)(=O)=O)cc2)n1, which Activity [1] is on record?
**A.** 9.3%

**Q.** And the Activity (Serum)?
**A.** 73.6%

**Q.** For Cc1ccc(-c2cc(C(=O)O)nn2-c2ccc(S(C)(=O)=O)cc2)cc1, which ED50 (Rattus norvegicus) is on record?
**A.** 85.2 mg/kg
